Here are results for one substance from patent publication US6485754B1, “Bone cement paste containing an antibiotic” (Merck Patent GmbH, priority 1997, dated 2002).

The nature of this series: Elution of antibiotics from cured α-BSM cement ball into phosphate buffer. Type of series: physicochemical. The settings on record: other material used as carrier instead of the hydroxyapatite-like cement pastes. As for the experimental part: 1 g of cement powder (α-BSM, WO 96/36562) and 0.7 ml of water in which 42 mg of gentamycin sulfate have been dissolved are mixed with one another. A paste is obtained by this means, which is shaped to give a ball of about 1 cm diameter. This ball is added at 37° C. to 20 ml of phosphate buffer according to Sörensen (pH 7.4). After approximately 10 minutes, the cement ball cures. At defined times, samples are taken from the buffer solution and the concentration of the antibiotic is determined microbiologically or chromatographically according to standard methods. The determined antibiotic concentrations in μg/ml correspond to the concentrations released in the buffer.
Analogously to Example 1, a previously cured ball of agar/gentamycin sulfate is eluted and the corresponding concentrations are measured.
Analogously to Example 1, an α-BSM/cefazolin ball is eluted and the corresponding concentrations are measured.
Analogously to Example 1, an α-BSM/netilmycin sulfate ball is eluted and the corresponding concentrations are measured.

Turning to gentamycin sulfate, the “release characteristics of the antibiotic (in words)” value is “released just as rapidly”.
